Where “and” joins values, the source holds several entries; their conditions need not be identical. Equal entries are not always repeated. Where two headings read alike, the source gives them in different places. One block for each molecule: values may come before it.
Key:
p60src kinase = target: T1, p60src kinase (Homo sapiens, UniProt P12931); experiment: Protein tyrosine kinase pharmaceutical screening assay; type: biochemical
T1 construct: purchased Upstate Biotechnology
Excerpt: At first p60src (Upstate Biotechnology) phosphorylates the P2 substrate. The phos-phorylated and biotinylated P1 peptide is depicted as string of beads with attached “P” (phosphate) and triangle (biotin). The phosphorylated P2 competes with P1 for binding to the TRITC-labeled anti-phosphotyrosine antibody. In absence of enzyme activity all fluorescent antibodies are bound to carrier particles via P1 which means maximal binding to carrier particles and correspondingly minimum particle number. The phosphorylated P2 catches the fluorescent antibody preventing the formation of complexes. In that case no binding to carrier particles occurs and maximal particle number will be measured. Potential inhibitors are incubated with the enzyme before the enzyme reaction is started by adding a mixture of P2 and ATP.

anti-estradiol antibody = experiment: 17-β-Estradiol competitive carrier particle assay (FCS); type: binding; details: for IC50: competition with TAMRA-estradiol, carrier particles 160 nm, FCS
Excerpt: The anti-estradiol-antibody was kindly provided by Dr. Schumacher (Institute of Fertility Research, Hamburg). 17-β-estradiol was obtained from Sigma. The protein A coated carrier particles (Protein A Ferrofluid™) with a mean diameter of 160 nm were from Immunicon. The optical set-up was the same as described in Example 1. […] Data evaluation and fitting procedures were the same as described in Example 1. The concentration of the conjugate (TAMRA-estradiol), the corresponding antibody and the carrier particles were kept constant in a specific series of experiments. […] The competitive assays were carried out as follows: The TAMRA conjugate of estradiol was mixed with the corresponding unlabelled molecules. […] Some experiments with JA190-estradiol conjugates were carried out in E-NAP buffer (200 mM sodium acetate, 150 mM NaCl, 0.2% BSA, pH 4). […] All estradiol conjugates, except for the BODIPY™-derivative, bound to an anti-estradiol antibody with similar affinity. […] All other conjugate-antibody interactions remained strong. […] TAMRA-estradiol was used for further assay evaluation.

[1] = system: anti-estradiol antibodies; experiment: Estradiol competition assay (fluorescence intensity distribution analysis); type: binding, Rabbit; details: 5 nM estradiol-Tamra, 0.18 nM carrier particles, 10 x 2 s
[2] = target: anti-theophylline antibody; details: read-out: K2 (KD value for the competitor)

Km (p60src kinase; turn over velocity versus ATP concentration, FIG. 13, read-out: Michaelis constant KM): 16.2 ± 4 µM
Compound: Nc1ncnc2c1ncn2[C@@H]1O[C@H](COP(=O)(O)OP(=O)(O)OP(=O)(O)O)[C@@H](O)[C@H]1O [ATP]

Compound: Cc1cc(O)c2c(c1)C(=O)c1cc(O)cc(O)c1C2=O [Emodin]
IC50 (p60src kinase; dose-response curves, FIG. 12): 50000 to 100000 nM

Activity on p60src kinase (in words) (p60src kinase; dose-response curves, FIG. 12): inactive
Compound: O=CN/C=C/c1cc(O)ccc1O [Erbstatin]

Compound: CN(C)c1ccc2c(-c3ccc(C(=O)NCCOCCOCCNC(=O)CON=C4CC5C(CCC6(C)C(O)CCC56)c5ccc(O)cc54)cc3C(=O)[O-])c3ccc(N(C)C)cc3[o+]c2c1 (centres unmarked) [TAMRA-estradiol]
Kd (anti-estradiol antibody; simultaneous fit of gB and binding degree to equations 1 and 8, read-out: K1 (KD value for the conjugate)): 0.0014 nM

IC50 ([1]; FIG. 8A, read-out: IC50 from I1 (intensity of free conjugate), hyperbolic fit): 11.9 ± 2.4 nM
IC50 ([1]; FIG. 8B, read-out: IC50 from I2 (intensity of carrier particles with bound conjugate), hyperbolic fit): 13.3 nM and 13.2 nM
IC50 ([1]; FIG. 8C, read-out: IC50 from I2/(I1+I2), hyperbolic fit): 8.8 ± 1.1 nM
IC50 (anti-estradiol antibody; read-out: IC50 using the binding degree): 20 nM
IC50 (anti-estradiol antibody; read-out: IC50 using the correlation amplitude gB): 3 nM
Compound: C[C@]12CC[C@@H]3c4ccc(O)cc4CC[C@H]3[C@@H]1CC[C@@H]2O [estradiol, 17-β-estradiol]

Kd ([2]; fit with K1 fixed at 10^−11 M): 0.083 nM
Kd ([2]; simultaneous fit of gB and binding degree to equations 1 and 8, K1 variable): 0.0025 nM
Compound: Cn1c(=O)c2[nH]cnc2n(C)c1=O [theophylline, Theophylline]
